Reference: article PMC8221581, “Functional Characterization of Olfactory Proteins Involved in Chemoreception of Galeruca daurica” (Frontiers in Physiology, 2021)
Where two headings read alike, the source gives them in different places.

Tests used:
GdauOBP1 = GdauOBP1 (Galeruca daurica, UniProt A0A1U9W4Y5); assay: Fluorescence competitive binding assay (1-NPN reporter), recombinant GdauOBP1; conditions: for Ki: Ki = IC50/(1 + [1-NPN]/K1-NPN)
Method: (§1) Fluorescence-binding assays were performed using a 970CRT spectrofluorophotometer (Hitachi, Japan). Instrument parameters were set as follows: Excitation slit of 10 nm, emission slit of 10 nm, sensitivity of 2 s, excitation wavelength of 337 nm, and scanning emission wavelength range of 350–700 nm. In order to measure the affinity of the fluorescent ligand 1-NPN (N-phenyl-1-naphthylamine) with the six recombinant proteins, the recombinant proteins were diluted to 2 μM in 50 mM Tris–HCl (pH 7.4) and added into a 1-cm light path quartz cuvette. Fluorescence values were recorded after the 1-NPN solution was added successively. The dissociation constant K1–NPN was calculated using GraphPad Prism 7.0 software.
(§2) Thirteen main volatiles of the host plant (A. mongolicum) were selected as competing ligands for the fluorescence competitive binding assays (Table 1). All ligands were purchased from Sigma-Aldrich (St. Louis, MO, United States). These ligands were dissolved in methanol (HPLC grade) to make stock solutions of 1 mM, which were added into a 2-μM protein solution with 1-NPN saturated. […] Three duplications were used in the binding experiment. The curves were fitted using Scatchard plots. The dissociation constants (Ki) of the competitive ligands were calculated based on the equation: Ki = IC50/(1 + [1−NPN]/K1−NPN), where IC50 is the concentration of a competitor that results in a 50% reduction of the initial fluorescence intensity, and [1-NPN] and K1–NPN are the free concentration of 1-NPN and the dissociation constant of the recombinant protein/1-NPN complex, respectively ([Campanacci et al., 2001]).

GdauOBP10 = GdauOBP10 (Galeruca daurica, UniProt A0A1U9W4Z5); assay: Fluorescence competitive binding assay (1-NPN reporter), recombinant GdauOBP10; conditions: for Ki: Ki = IC50/(1 + [1-NPN]/K1-NPN)
Sequence of GdauOBP10 (A0A1U9W4Z5 entry or part of it): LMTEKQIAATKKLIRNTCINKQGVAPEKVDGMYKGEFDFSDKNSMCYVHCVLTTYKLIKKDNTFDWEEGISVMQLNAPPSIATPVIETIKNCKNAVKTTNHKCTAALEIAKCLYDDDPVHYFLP
Method: as §1, §2

GdauCSP5 = GdauCSP5 (Galeruca daurica, UniProt A0A1W6GWH8); assay: Fluorescence competitive binding assay (1-NPN reporter), recombinant GdauCSP5; conditions: for Ki: Ki = IC50/(1 + [1-NPN]/K1-NPN)
Sequence of GdauCSP5 (A0A1W6GWH8 entry or part of it): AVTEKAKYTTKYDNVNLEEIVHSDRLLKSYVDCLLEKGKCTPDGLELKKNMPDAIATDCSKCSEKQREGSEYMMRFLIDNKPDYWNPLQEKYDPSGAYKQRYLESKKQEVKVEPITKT
Method: as §1, §2

GdauCSP4 = GdauCSP4 (Galeruca daurica, UniProt A0A1W6GWH1); assay: Fluorescence competitive binding assay (1-NPN reporter), recombinant GdauCSP4; conditions: for Ki: Ki = IC50/(1 + [1-NPN]/K1-NPN)
Sequence of GdauCSP4 (A0A1W6GWH1 entry or part of it): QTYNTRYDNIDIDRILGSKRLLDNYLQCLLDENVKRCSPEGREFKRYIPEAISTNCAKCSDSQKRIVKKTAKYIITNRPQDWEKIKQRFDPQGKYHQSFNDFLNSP
Method: as §1, §2

G. daurica antennae [1] = assay: Electroantennogram (EAG) of dsRNA-CSP5-injected adults to host plant volatiles; set-up: species or system Galeruca daurica; conditions: dsRNA-CSP5-injected females vs dsRNA-GFP control; 10 μL of 1 mol/L odorant
Method: (§3) Two microliters of dsRNA (1,000 μg/μL) was injected into the intersegmental membrane between the fourth and fifth abdominal segments of 3-day-old adult females and males using a microinjector (Shimadzu, Japan). All the treated insects, including dsRNA-OBP15-injected, dsRNA-CSP5-injected, and dsRNA-GFP-injected, were reared under natural temperature conditions in the lab. Samples were taken 48 h later for interference efficiency measurement and electroantennogram analysis.
Electroantennograms were conducted to record the antennal responses of dsRNA-OBP15-injected, dsRNA-CSP5-injected, and dsRNA-GFP-injected to 12 plant volatiles. These odorants were dissolved in dichloromethane (HPLC grade) to make stock solutions of 1 mol/L, and dichloromethane alone served as solvent control. The antennae were cut off at the base, and the ends were removed then attached to the electrode with electrode gel. Filter paper strips (1 cm × 0.5 cm) were loaded with 10 μL of each chemical solution and then inserted into a Pasteur pipette. The tube was connected to an air stimulus controller (CS-55; SynTech). The signals were detected by a high-impedance amplifier (IDAC-2; SynTech) and analyzed using SynTech software (GC-EAD 2014 v1.2.5). The pulse duration time was 0.2 s with a stimulation interval of 30 s, and each compound was tested three times for each antenna. It was taken as the absolute value of the difference value between the maximum amplitude achieved by the odor stimulus and the baseline level. Each antenna was stimulated three times. All EAG results are presented as the mean EAG values from six female or male antennae.
The binding assay curve was fitted by GraphPad Prism 7.0, using the least squares (ordinary) fit of the second-order polynomial. Data from qPCR and EAG assays were analyzed using SPSS Statistics 17.0. T-test (P < 0.05) was used to analyze the differences among the groups.

GdauOBP6 = GdauOBP6 (Galeruca daurica, UniProt A0A1U9W4Z8); assay: Fluorescence competitive binding assay (1-NPN reporter), recombinant GdauOBP6; conditions: for Ki: Ki = IC50/(1 + [1-NPN]/K1-NPN)
Sequence of GdauOBP6 (A0A1U9W4Z8 entry or part of it): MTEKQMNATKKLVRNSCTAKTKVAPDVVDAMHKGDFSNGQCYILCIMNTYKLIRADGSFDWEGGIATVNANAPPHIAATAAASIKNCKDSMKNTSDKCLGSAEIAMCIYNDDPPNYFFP
Method: as §1, §2

GdauOBP15 = GdauOBP15 (Galeruca daurica, UniProt A0A1U9W4Z9); assay: Fluorescence competitive binding assay (1-NPN reporter), recombinant GdauOBP15; conditions: for Ki: Ki = IC50/(1 + [1-NPN]/K1-NPN)
Sequence of GdauOBP15 (A0A1U9W4Z9 entry or part of it): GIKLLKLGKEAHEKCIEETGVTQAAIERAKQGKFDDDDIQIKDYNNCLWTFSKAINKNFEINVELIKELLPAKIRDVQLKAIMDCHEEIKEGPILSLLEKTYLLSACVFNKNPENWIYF
Method: as §1, §2

G. daurica antennae [2] = assay: Electroantennogram (EAG) of dsRNA-OBP15-injected adults to host plant volatiles; set-up: species or system Galeruca daurica; conditions: dsRNA-OBP15-injected females vs dsRNA-GFP control; 10 μL of 1 mol/L odorant
Method: as §3
Electroantennograms were conducted to record the antennal responses of dsRNA-OBP15-injected, dsRNA-CSP5-injected, and dsRNA-GFP-injected to 12 plant volatiles. These odorants were dissolved in dichloromethane (HPLC grade) to make stock solutions of 1 mol/L, and dichloromethane alone served as solvent control. The antennae were cut off at the base, and the ends were removed then attached to the electrode with electrode gel. Filter paper strips (1 cm × 0.5 cm) were loaded with 10 μL of each chemical solution and then inserted into a Pasteur pipette. […] The signals were detected by a high-impedance amplifier (IDAC-2; SynTech) and analyzed using SynTech software (GC-EAD 2014 v1.2.5). […]
The binding assay curve was fitted by GraphPad Prism 7.0, using the least squares (ordinary) fit of the second-order polynomial. Data from qPCR and EAG assays were analyzed using SPSS Statistics 17.0. […]

[3] = GdauOBP1, 2 μM protein, 1-NPN saturated, 50 mM Tris–HCl pH 7.4, read-out: IC50
[4] = GdauOBP10, 2 μM protein, 1-NPN saturated, 50 mM Tris–HCl pH 7.4, read-out: IC50
[5] = GdauCSP5, 2 μM protein, 1-NPN saturated, 50 mM Tris–HCl pH 7.4, read-out: IC50
[6] = GdauCSP4, 2 μM protein, 1-NPN saturated, 50 mM Tris–HCl pH 7.4, read-out: IC50
[7] = GdauOBP6, 2 μM protein, 1-NPN saturated, 50 mM Tris–HCl pH 7.4, read-out: IC50
[8] = GdauOBP15, 2 μM protein, 1-NPN saturated, 50 mM Tris–HCl pH 7.4, read-out: IC50

Sequence of GdauOBP1 (A0A1U9W4Y5 entry or part of it): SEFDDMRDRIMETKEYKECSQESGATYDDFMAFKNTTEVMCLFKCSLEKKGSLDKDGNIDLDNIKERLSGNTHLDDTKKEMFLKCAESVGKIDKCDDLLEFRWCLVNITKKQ

IC50 (GdauOBP1; [3])	Ki (GdauOBP1; GdauOBP1)	IC50 (GdauOBP10; [4])	Ki (GdauOBP10; GdauOBP10)	IC50 (GdauCSP5; [5])	Ki (GdauCSP5; GdauCSP5)	IC50 (GdauCSP4; [6])	Ki (GdauCSP4; GdauCSP4)	IC50 (GdauOBP6; [7])	Ki (GdauOBP6; GdauOBP6)	IC50 (GdauOBP15; [8])	Ki (GdauOBP15; GdauOBP15)	SMILES	EAG response compared to the control (G. daurica antennae [1])	IC50 (GdauOBP1)	IC50 (GdauOBP10)	IC50 (GdauCSP5)	IC50 (GdauCSP4)	IC50 (GdauOBP6)	IC50 (GdauOBP15)	further results
63 µM	53.8 µM	59.9 µM	46.2 µM	45.5 µM	33.5 µM	23.4 µM	21.2 µM	80.5 µM	69.2 µM	51.7 µM	45.6 µM	C1=CC=CCC=C1 [1,3,5-cycloheptatriene, 1,3,5-Cycloheptatriene]	significantly lower	–	–	–	–	–	–	–
–	–	–	–	–	–	–	–	–	–	–	–	C1CSCSC1 [1,3-dithiane]	significantly lower	70.6 µM	59.5 µM	50 µM	18.5 µM	36.7 µM	57.2 µM	–
–	–	–	–	–	–	–	–	–	–	–	–	c1ccc(Nc2cccc3ccccc23)cc1 [1-NPN, N-phenyl-1-naphthylamine, reference compound]	–	–	–	–	–	–	–	Kd (GdauOBP1): 11.4 µM; Kd (GdauOBP10): 6.54 µM; Kd (GdauCSP5): 5.34 µM; Kd (GdauCSP4): 18.9 µM; Kd (GdauOBP6): 11.8 µM; Kd (GdauOBP15): 14.6 µM
–	–	–	–	–	–	–	–	–	–	–	–	CCCC=CC=O [2-hexenal, 2-Hexenal]	significantly lower	95.9 µM	85.5 µM	34.4 µM	17.5 µM	33.9 µM	41.7 µM	EAG response compared to the control (G. daurica antennae [2]): reduced significantly
–	–	–	–	–	–	–	–	–	–	–	–	CCC/C=C\CO [(Z)-2-hexen-1-ol, (Z)-2-Hexen-1-ol]	–	86.4 µM	95.6 µM	–	50 µM	33 µM	76 µM	–
–	–	–	–	–	–	–	–	–	–	–	–	C=CCSSCC=C [Diallyl disulfide]	–	97.1 µM	–	61.6 µM	23.5 µM	72.1 µM	42.3 µM	–
–	–	77.8 µM	60.1 µM	72.2 µM	53.1 µM	43.8 µM	39.7 µM	55 µM	47.3 µM	48.1 µM	42.4 µM	C=CCSCC=C [Diallyl sulfide]	–	–	–	–	–	–	–	–
63.2 µM	54 µM	67.4 µM	52.1 µM	53.7 µM	39.5 µM	16.6 µM	15 µM	44.5 µM	38.2 µM	56.7 µM	50 µM	CSSSC [Dimethyl trisulfide]	significantly lower	–	–	–	–	–	–	–
–	–	–	–	–	–	–	–	–	–	–	–	CCCCCC=O [Hexanal]	significantly lower	70.8 µM	52 µM	61.4 µM	15.4 µM	32.3 µM	68.8 µM	–
–	–	–	–	–	–	–	–	–	–	–	–	COC(=O)c1ccccc1 [Methyl benzoate]	significantly lower	65.4 µM	73.9 µM	44.3 µM	13.3 µM	36.4 µM	35.9 µM	–
82.6 µM	70.6 µM	–	–	84.2 µM	61.9 µM	–	–	68.7 µM	59 µM	–	–	C=CC(=C)CCC=C(C)C [Myrcene]	significantly lower	–	–	–	–	–	–	–
–	–	–	–	–	–	–	–	–	–	–	–	Cc1ccc(C)cc1 [p-xylene, p-Xylene]	significantly lower	84.7 µM	58 µM	55.7 µM	19.7 µM	72.5 µM	49.9 µM	–

SMILES	IC50 (GdauOBP1; [3])	Ki (GdauOBP1; GdauOBP1)	IC50 (GdauOBP10; [4])	Ki (GdauOBP10; GdauOBP10)	IC50 (GdauCSP5; [5])	Ki (GdauCSP5; GdauCSP5)	IC50 (GdauCSP4; [6])	Ki (GdauCSP4; GdauCSP4)	IC50 (GdauOBP6; [7])	Ki (GdauOBP6; GdauOBP6)	IC50 (GdauOBP15; [8])	Ki (GdauOBP15; GdauOBP15)	EAG response compared to the control (G. daurica antennae [1])	IC50 (GdauOBP1)	IC50 (GdauOBP10)	IC50 (GdauCSP5)	IC50 (GdauCSP4)	IC50 (GdauOBP6)	IC50 (GdauOBP15)	further results
CSSC [Dimethyl disulfide]	64.9 µM	55.4 µM	61.9 µM	47.8 µM	36 µM	26.5 µM	23.1 µM	21 µM	29.9 µM	25.7 µM	26.2 µM	23.1 µM	–	–	–	–	–	–	–	–
